# Results taken from patent US4312883A, “Furocoumarin for the photochemotherapy of psoriasis and related skin diseases” (Consiglio Nazionale delle Ricerche, priority 1979, dated 1982).
# Structures can show the parent of a compound that is named as a salt. Where two headings read alike, the source gives them in different places.
# Assays:
# DNA [1] = experiment: Dark complex formation (intercalation) with DNA in the ground state, binding parameters; design: K (association constants) of the complexes with DNA: unit not given here; settings: for K (association constants) of the complexes with DNA / 1/n (frequency of binding sites): in vitro, ground state; for K (association constants) of the complexes with DNA: McGhee and Von Hippel method; for 1/n (frequency of binding sites): molecules bound per nucleotide; for 1/n (frequency of binding sites), relative / K (association constants), relative: relative (ang = 100)
# Description: Dark complex formation: It is known from F. Dall'Acqua, et al. Chem.-Biol. Interactions 21,103 (1978) that the intercalated complex formed by furocoumarins with DNA strongly affects the successive photoaddition increasing the rate of photobinding. […] These parameters have been determined according to the method of McChee and Von Hippel, J.Mol.Biol, 86, 469 (1974).
# (a) Determined according to Mc Ghee and Von Hippel, J. Mol. Biol.,
# DNA [2] = experiment: Photobinding to DNA, rate constants of the photoreactions; format: biochemical; settings: for Rate constants of the photoreactions with DNA: in vitro, UV-A irradiated; for Rate constants of the photoreactions with DNA, relative: relative (ang = 100); for photobinding capacity to DNA (in words): versus angelicin
# Description: (b) Determined according to F. Dall'Acqua, S. Marciani, F. Zambon and G.
# Rodighiero, Photochem. Photobiol., 29,489(1979).
# Photobinding capacity to DNA: The introduction of one or two methyl groups in the molecule of angelicin leads to a strong increase of the photobinding to DNA; see Table II. […] Photobiol., 29, 489 (1979).
# DNA [3] = experiment: Capacity to form inter-strand cross-linkages in DNA; format: biochemical; settings: (psr = 100)
# Procedure: All these compounds were not suitable to photoinduce in DNA inter-strand cross-linkages. […] These tests were carried out according to the method of F. Bordin et al., Photochem. Photobiol., 29,1063 (1979).
# [4] = system: DNA synthesis in Ehrlich ascites tumor cells; experiment: Inhibition of DNA synthesis (and DNA and RNA synthesis) on irradiation at 365 nm; format: cell-based; settings: for inhibition of DNA synthesis, relative: relative (ang = 100)
# Description: (§1) Photobiological activity: A significant test for assessing photobiological activity of alkylangelicins is the study of their capacity to inhibit DNA and RNA synthesis in Ehrlich ascites tumor cells. In Table III the capacity of inhibition is expressed as ID50, that is the irradiation does, in terms of quanta at 365 nm, necessary to inhibit in these cells the 50% of the DNA and RNA synthesis in the presence of a constant amount of alkylangelicin. […] Moreover, in general it can be observed that in this simple biological system a close correlation exists between photobiological activity and the capacity to induce photochemical lesions in DNA, that is photoreactivity.
# [5] = system: RNA synthesis in Ehrlich ascites tumor cells; experiment: Inhibition of RNA synthesis on irradiation at 365 nm; format: cell-based; settings: relative (ang = 100)
# Description: as §1
# epidermal DNA synthesis [6] = experiment: Inhibition of epidermal DNA synthesis in the mouse in vivo after topical application and UV-A irradiation; settings: light or radiation study, 0.01% methanol solutions, UV-A 9 J/cm^2, read-out: Percent inhibition ± standard error of epidermal DNA synthesis
# Procedure: DNA samples were dissolved in water and their specific radioactivity determined.
# Each drug substance was studied using at least six mice.
# epidermal DNA synthesis [7] = experiment: Inhibition of the synthesis of epidermal DNA of the mouse in vivo after oral administration and UV-A irradiation; settings: oral 0.25 g/Kg, UV-A 9 J/cm^2 after two hours
# Description: Considering that the topical skin tests carried out on mice to evaluate the effectiveness of these substances has yielded data which correlate well with the clinical data, such a test conveniently modified has been adopted to evaluate the effectiveness of the alkylangelicins after oral administration followed by UV-A irradiation.
# In this connection experiments have been conducted using mice 20±2 g in weight, that were starved for three hours before oral administration of the alkylangelicins. Groups of 5 mice were fed a suspension of 0.5% methylcellulose in water containing the alkylangelicins of the invention at a dosage of 0.25 g/Kg. The animals were kept in the dark for two hours, that is for the time necessary for absorption, systemic distribution and localization of the drug at the level of the skin. The animals were then irradiated with UV-A light, 9 J/cm^2. Later the animals were sacrificed and the inhibition of the epidermal DNA synthesis was tested; the results obtained are reported in Table VI. The skin on the back, protected from light by a dark paper, was assumed as a control. As a reference 8-MOP, used under the same experimental conditions, was also tested. The significant activity of the alkylangelicins according to the present invention, higher than that of 8-MOP, in inhibiting the epidermal DNA synthesis in mice upon oral administration allows one to consider these compounds as also being effective for oral administration to humans for photochemotherapy of psoriasis and of other skin diseases that are characterized by cellular hyperproliferation.
# psoriasis = experiment: Topical photochemotherapy of psoriasis in patients; format: in vivo, human; settings: for No. of patients with Excellent result / No. of patients with Fair result / No. of patients with Good result / No. of patients with Poor result: topical 0.1% w/v + UV-A; for No. of patients with Excellent result: Excellent = 90% clearance; for No. of patients with Fair result: Fair = 50-70%; for No. of patients with Good result: Good = 70-90%; for No. of patients with Poor result: Poor 40%
# Description: Clinical data: The effectiveness of certain representative alkylangelicins according to the present invention, specifically 5-methylangelicin, 4,5'-dimethylangelicin, 4'-hydroxymethyl-4,5'-dimethylangelicin, 4'-hydroxymethyl-4,5'-dimethylangelicin and 4,5-dimethylangelicin, has been tested by measuring their capacity to resolve psoriasis in various patients. For a direct comparison the efficacy of the parent unsubstituted angelicin and that of three very effective linear furocoumarins, that is 8-methoxypsoralen (8-MOP), 5-methoxypsoralen (5-MOP), and 4,5',8-trimethylpsoralen (TMP) were also tested.
# In each treatment four areas of the affected skin were used;
# (a) In the first area an alcohol lotion, containing 10% glycerine, of the tested compound (0.1% w/v) was applied until a concentration of […] was reached then left to evaporate by the heat of the body. After half an hour the area was irradiated with high intensity UV-A emitting low pressure mercury fluorescent lamps with a wavelength of 320-400 nm. The irradiation doses were selected in the range of 4.5-13 J/cm^2 for each application as a function of the sensitivity of the skin of the patients; when the skin sensitivity was higher, the light doses were lower and vice versa.
# (b) A second area was treated with an alcohol solution of the drug as in (a) but it was covered and maintained in the dark.
# (c) A third area, where the drug was not applied, was irradiated as in (a) but in general with higher UV-A doses.
# (d) A fourth area was not treated at all, neither with the drug, not with UV-A.
# The treatment with the alkylangenlicins referred to above was repeated 5 time a week for two or more weeks; the total number of treatments was between 8 and 20 per subject. In some cases, as for instance with 5-methylangelicin, a good clearing of psoriasis was observed after 8 treatments.
# In order to avoid induction of photosensitization processes such as redness and erythema in the reference tests made with the linear furocoumarins 8-MOP, 5-MOP, TMP, lower light doses were used than in the case of alkylangelicins, the treatments were repeated at a frequency of no more than three times a week.
# Acute toxicity in mice = settings: mouse, in vivo, po
# skin = experiment: Relative skin phototoxicity; settings: (psr = 100)
# Solubility = format: physicochemical
# DNA [8] = settings: (psr = 100); footnote (c), reference compounds; cited from earlier work
# [9] = system: Salmonella typhimurium TA 100; experiment: Ames test; format: cell-based; settings: Salmonella typhimurium TA 100 his G46 (uvrB^- rfa) pKM101; versus 4,5'-dimethylangelicin
# melamin pigmentation = settings: Table I; cited from earlier work
# [10] = cited from earlier work
# DNA [11] = settings: cited from earlier work
# DNA synthesis = settings: Table I; cited from earlier work
# [12] = known furocoumarins, Table I; cited from earlier work
# [13] = Table I; cited from earlier work
smiles,measurement,setting,value
"Cc1cc2c(ccc3c(C)cc(=O)oc32)o1 [4,5'-dimethylangelicin]",K (association constants) of the complexes with DNA,DNA [1],1410
same,1/n (frequency of binding sites),DNA [1],0.094
same,"1/n (frequency of binding sites), relative",DNA [1],149
same,"K (association constants), relative",DNA [1],252
same,Rate constants of the photoreactions with DNA,DNA [2],4.0 K × 10^-2 × min^-1
same,"Rate constants of the photoreactions with DNA, relative",DNA [2],363
same,capacity to form interstrand cross-linkages,DNA [3],0
same,"inhibition of DNA synthesis, relative",[4],230
same,"inhibition of RNA synthesis, relative",[5],172
same,inhibition in vivo at 0.01 %,epidermal DNA synthesis [6],37.6 ± 4.9%
same,Percent inhibition ± standard error of epidermal DNA synthesis,epidermal DNA synthesis [7],51.0 ± 8.0%
same,No. of patients with Excellent result,psoriasis,0 patients
same,No. of patients with Fair result,psoriasis,3 patients
same,No. of patients with Good result,psoriasis,1 patients
same,No. of patients with Poor result,psoriasis,0 patients
same,LD50,Acute toxicity in mice,2500 mg/kg
same,Relative skin phototoxicity,skin,0
"Cc1oc2ccc3c(C)cc(=O)oc3c2c1CN [4,5'-dimethyl-4'-aminomethylangelicin hydrochloride]",K (association constants) of the complexes with DNA,DNA [1],16300
same,1/n (frequency of binding sites),DNA [1],0.255
same,"1/n (frequency of binding sites), relative",DNA [1],404
same,"K (association constants), relative",DNA [1],2910
same,Rate constants of the photoreactions with DNA,DNA [2],0.8 K × 10^-2 × min^-1
same,"Rate constants of the photoreactions with DNA, relative",DNA [2],72
same,photobinding capacity to DNA (in words),DNA [2],lower than that of angelicin
same,capacity to form interstrand cross-linkages,DNA [3],0
same,capacity to inhibit the DNA and RNA synthesis (in words),"[4]; Ehrlich ascites tumor cells, versus angelicin",lower than that of angelicin
same,"inhibition of DNA synthesis, relative",[4],25
same,"inhibition of RNA synthesis, relative",[5],23.3
same,water solubility,Solubility,water soluble
same,Relative skin phototoxicity,skin,0
"Cc1oc2ccc3c(C)cc(=O)oc3c2c1COCCN(C)C [4,5'-dimethyl-4'-N,N-dimethylaminoethoxymethylangelicin]",K (association constants) of the complexes with DNA,DNA [1],> 10000
same,1/n (frequency of binding sites),DNA [1],> 0.15
same,increase of K (affinity towards DNA),DNA [1]; on introduction of a cationic moiety in addition to the two methyl groups,more than 20 times
same,"1/n (frequency of binding sites), relative",DNA [1],> 230
same,"K (association constants), relative",DNA [1],> 1700
same,photobinding capacity to DNA (in words),DNA [2],strongly increased photobinding capacity
same,capacity to form interstrand cross-linkages,DNA [3],0
same,"inhibition of DNA synthesis, relative",[4],290
same,"inhibition of RNA synthesis, relative",[5],162
same,inhibition in vivo at 0.01 %,epidermal DNA synthesis [6],29.4 ± 16.2%
same,water solubility,Solubility,water soluble
same,Relative skin phototoxicity,skin,0
"O=c1ccc2cc3ccoc3cc2o1 [psoralen, reference compound]",K (association constants) of the complexes with DNA,DNA [1],400
same,1/n (frequency of binding sites),DNA [1],0.108
same,"1/n (frequency of binding sites), relative",DNA [1],171
same,"K (association constants), relative",DNA [1],71.4
same,Rate constants of the photoreactions with DNA,DNA [2],3.8 K × 10^-2 × min^-1
same,"Rate constants of the photoreactions with DNA, relative",DNA [2],345
same,"inhibition of DNA synthesis, relative",[4],275
same,"inhibition of RNA synthesis, relative",[5],166
same,inhibition in vivo at 0.01 %,epidermal DNA synthesis [6],47.8 ± 7.9%
same,capacity to form interstrand cross-linkages,DNA [8],100
same,Relative skin phototoxicity,skin,100
Cc1cc2occc2c2oc(=O)ccc12 [5-methylangelicin],K (association constants) of the complexes with DNA,DNA [1],1560
same,1/n (frequency of binding sites),DNA [1],0.071
same,"1/n (frequency of binding sites), relative",DNA [1],112
same,"K (association constants), relative",DNA [1],278
same,Rate constants of the photoreactions with DNA,DNA [2],3.41 K × 10^-2 × min^-1
same,"Rate constants of the photoreactions with DNA, relative",DNA [2],298
same,capacity to form interstrand cross-linkages,DNA [3],0
same,"inhibition of DNA synthesis, relative",[4],275
same,"inhibition of RNA synthesis, relative",[5],281
same,mutagenic activity (Ames test),[9],"of the same order of magnitude as that of 4,5'-dimethylangelicin"
same,inhibition in vivo at 0.01 %,epidermal DNA synthesis [6],47.5 ± 1.19%
same,No. of patients with Excellent result,psoriasis,2 patients
same,No. of patients with Fair result,psoriasis,0 patients
same,No. of patients with Good result,psoriasis,5 patients
same,No. of patients with Poor result,psoriasis,0 patients
same,efficacy in psoriasis patients (in words),psoriasis; topical + UV-A,"very active, probably more active than the same amount of 8-MOP"
same,number of treatments to good clearing of psoriasis,"psoriasis; topical + UV-A, 5 times a week, in some cases",8 treatments
same,LD50,Acute toxicity in mice,2000 mg/kg
same,Relative skin phototoxicity,skin,0
"COc1c2occc2cc2ccc(=O)oc12 [8-MOP, 8-methoxypsoralen, reference compound]",K (association constants) of the complexes with DNA,DNA [1],740
same,1/n (frequency of binding sites),DNA [1],0.128
same,"1/n (frequency of binding sites), relative",DNA [1],203
same,"K (association constants), relative",DNA [1],132
same,Rate constants of the photoreactions with DNA,DNA [2],2.3 K × 10^-2 × min^-1
same,"Rate constants of the photoreactions with DNA, relative",DNA [2],209
same,"inhibition of DNA synthesis, relative",[4],249
same,"inhibition of RNA synthesis, relative",[5],93
same,inhibition in vivo at 0.01 %,epidermal DNA synthesis [6],61 ± 1.6%
same,Percent inhibition ± standard error of epidermal DNA synthesis,epidermal DNA synthesis [7],39.1 ± 3.7%
same,No. of patients with Excellent result,psoriasis,3 patients
same,No. of patients with Fair result,psoriasis,2 patients
same,No. of patients with Good result,psoriasis,3 patients
same,No. of patients with Poor result,psoriasis,2 patients
same,capacity to form interstrand cross-linkages,DNA [8],63
same,Stimulation of melamin pigmentation,melamin pigmentation,"strong, well known"
same,Carcinogenicity (oral),[10]; oral,weak
same,Carcinogenicity (topical),[10]; topical,strong
same,DNA intercalation property,DNA [11]; Table I,strong
same,Interstrand cross-linking induction in DNA,DNA [11]; Table I,"strong, well known"
same,Monoadduct forming property,DNA [11]; Table I,"known, strong"
same,Photobinding capacity to DNA,DNA [11]; known furocoumarins,"known, strong"
same,DNA synthesis inhibiting property,DNA synthesis,"known, strong"
same,Photosensitizing activity,[12],"known, strong"
same,Mutagenicity,[13],"known, strong"
same,LD50,Acute toxicity in mice,800 mg/kg
same,Relative skin phototoxicity,skin,71
